Assays:
Assay type in all cases: in vivo
[1] = test system: Echinochloa crus-galli (ECHCG); assay: Herbicidal pre-emergence action, section C (Table C3); conditions: visual grading after ca. 3 weeks vs untreated controls
In short: (§1)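 Visual damage rating at ca. 3 weeks relative to untreated controls, expressed as % effect (100% = plants died, 0% = like controls). Pre-emergence treatment: WP or EC formulations applied to the soil surface over sown seeds in sandy loam, 600 l water/ha, 0.5% additive.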

Veronica persica (VERPE) = assay: Herbicidal pre-emergence action, section C (Table C10); conditions: visual grading after ca. 3 weeks
In short: as §1

[2] = test system: Abutilon theophrasti (ABUTH); assay: Herbicidal post-emergence action, section B (Table B1); conditions: application rate 1280 g/ha, rated visually after about 3 weeks
In short: (§2)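 Post-emergence greenhouse test. One-leaf stage; WP or EC plus 0.5% additive; 600 liters per hectare water volume; visual % rating at ~3 weeks relative to untreated plants.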

[3] = test system: Amaranthus retroflexus (AMARE); assay: Herbicidal pre-emergence action, section C (Table C11); conditions: Amaranthus retroflexus, pre-emergence, 504 h; application rate 320 g/ha; visual grading after ca. 3 weeks; read-out: pre-emergence activity against AMARE in %
In short: as §1

[4] = test system: Matricaria inodora (MATIN); assay: Herbicidal pre-emergence action, section C (Table C6); conditions: application rate 320 g/ha, visual grading after ca. 3 weeks; for pest or weed control at 320 g/ha: Tripleurospermum inodorum, pre-emergence, 504 h, read-out: pre-emergence activity against MATIN in %
Text: Seeds of mono- and dicotyledonous weed plants and crop plants were sown, in plastic or organic planting pots, in sandy loam and covered with soil. The compounds according to the invention, formulated in the form of wettable powders (WP) or as emulsifiable concentrates (EC), were applied to the surface of the covering soil as aqueous suspension or emulsion, with the addition of 0.5% of an additive, at an application rate of 600 l of water/ha (converted). Following treatment, the pots were placed in a greenhouse and kept under optimum growth conditions for the test plants. The visual grading of the damage to the test plants was carried out after ca. 3 weeks in comparison to untreated controls (herbicidal effect in percent (%): 100% effect=plants have died off, 0% effect=as control plants).

[5] = test system: Matricaria inodora (MATIN); assay: Herbicidal pre-emergence action, section A (Table A6); conditions: application rate 320 g/ha, visual grading after ca. 3 weeks vs untreated controls; for pest or weed control at 320 g/ha: Tripleurospermum inodorum, pre-emergence, 504 h, read-out: pre-emergence activity against MATIN in %
In short: (§3)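 Sandy loam pots, seeds covered with soil, treated on the soil surface with aqueous WP or EC preparations containing 0.5% additive (600 l/ha). Visual damage rating after ca. 3 weeks in greenhouse; scale 0% (as control) to 100% (plants died off).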

Zea mays (ZEAMX) = assay: Pre-emergence effects on crop plants, section D (Table D1); conditions: visual grading after ca. 3 weeks
In short: (§4)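 Pre-emergence soil-surface spray, 320 g/ha or below, 600 l water/ha + 0.5% additive; WP/EC formulations; sandy loam; greenhouse; visual % damage vs untreated at ~3 wk.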

[6] = test system: Digitaria sanguinalis (DIGSA); assay: Herbicidal pre-emergence action, section A (Table A12); conditions: application rate 320 g/ha; for pest or weed control at 320 g/ha: Digitaria sanguinalis, 504 h, read-out: pre-emergence activity against DIGSA in %
In short: as §3

[7] = test system: Digitaria sanguinalis (DIGSA); assay: Herbicidal pre-emergence action, section C (Table C12); conditions: visual grading after ca. 3 weeks; for pest or weed control at 80 g/ha: Digitaria sanguinalis, pre-emergence, 504 h, application rate 80 g/ha, read-out: pre-emergence activity against DIGSA in %
In short: as §1

[8] = test system: Polygonum convolvulus (POLCO); assay: Herbicidal pre-emergence action, section C (Table C7); conditions: visual grading after ca. 3 weeks
In short: as §1

Glycine max (GLXMA) = assay: Pre-emergence effects on crop plants, section D (Table D4); conditions: application rate 80 g/ha; visual grading after ca. 3 weeks
In short: as §4

Setaria viridis (SETVI) = assay: Herbicidal post-emergence action, section B (Table B8); conditions: visual rating about 3 weeks after treatment vs untreated controls
In short: as §2

[9] = test system: Digitaria sanguinalis (DIGSA); assay: Herbicidal post-emergence action, section B (Table B12); conditions: visual rating about 3 weeks after treatment vs untreated controls
In short: as §2

Poa annua (POAAN) = assay: Herbicidal post-emergence action, section B (Table B7); conditions: visual rating about 3 weeks after treatment vs untreated controls
In short: as §2

`CCS(=O)(=O)N1CSc2cc(C)c(-c3ccccc3F)nc21` [Example I-060, 3-(ethylsulfonyl)-5-(2-fluorophenyl)-6-methyl-2,3-dihydro[1,3]thiazolo[4,5-b]pyridine] gave a pest or weed control at 80 g/ha ([1]; Echinochloa crus-galli, pre-emergence, 504 h, application rate 80 g/ha, read-out: pre-emergence activity against ECHCG in %) of 100%, a pest or weed control at 80 g/ha (Veronica persica (VERPE); Veronica persica, pre-emergence, 504 h, application rate 80 g/ha, read-out: pre-emergence activity against VERPE in %) of 90% and a pest or weed control at 1280 g/ha ([2]; Abutilon theophrasti, 504 h, read-out: post-emergence activity against ABUTH in %) of 90%. For the same molecule, the pest or weed control at 320 g/ha [3] was 90%, the pest or weed control at 320 g/ha [4] was 90% and the pest or weed control at 320 g/ha [5] was 90%. For the same molecule, the “pre-emergence activity against ZEAMX in % (crop plant damage)” value (Zea mays (ZEAMX); application rate 80 g/ha) was 20%, the pest or weed control at 320 g/ha [6] was 100% and the pest or weed control at 80 g/ha [7] was 100%. For the same molecule, the pest or weed control at 80 g/ha ([8]; Fallopia convolvulus, pre-emergence, 504 h, application rate 80 g/ha, read-out: pre-emergence activity against POLCO in %) was 80%, the “pre-emergence activity against GLXMA in % (crop plant damage)” value (Glycine max (GLXMA)) was 0% and the pest or weed control at 320 g/ha (Setaria viridis (SETVI); Setaria viridis, post-emergence, 504 h, application rate 320 g/ha, read-out: post-emergence activity against SETVI in %) was 90%. For the same molecule, the pest or weed control at 320 g/ha ([9]; Digitaria sanguinalis, post-emergence, 504 h, application rate 320 g/ha, read-out: post-emergence activity against DIGSA in %) was 90% and the pest or weed control at 1280 g/ha (Poa annua (POAAN); Poa annua, post-emergence, 504 h, application rate 1280 g/ha, read-out: post-emergence activity against POAAN in %) was 90%.
Work on `CCOCCS(=O)(=O)N1C[S+]([O-])c2cc(C)c(-c3ccccc3F)nc21` (stereo not drawn) [Example I-127] yielded a pest or weed control at 320 g/ha (Veronica persica (VERPE); Veronica persica, pre-emergence, 504 h, application rate 320 g/ha, read-out: pre-emergence activity against VERPE in %) of 90%, a pest or weed control at 320 g/ha [3] of 90% and a pest or weed control at 320 g/ha [4] of 90%. For the same molecule, the pest or weed control at 320 g/ha [5] was 100%, the “pre-emergence activity against ZEAMX in % (crop plant damage)” value (Zea mays (ZEAMX); application rate 80 g/ha) was 20% and the pest or weed control at 320 g/ha [6] was 100%. The pest or weed control at 80 g/ha [7] was 100%, the pest or weed control at 320 g/ha ([8]; Fallopia convolvulus, pre-emergence, 504 h, application rate 320 g/ha, read-out: pre-emergence activity against POLCO in %) was 90% and the “pre-emergence activity against GLXMA in % (crop plant damage)” value (Glycine max (GLXMA)) was 20%. It also gave a pest or weed control at 1280 g/ha (Setaria viridis (SETVI); Setaria viridis, post-emergence, 504 h, application rate 1280 g/ha, read-out: post-emergence activity against SETVI in %) of 90%, a pest or weed control at 1280 g/ha ([9]; Digitaria sanguinalis, post-emergence, 504 h, application rate 1280 g/ha, read-out: post-emergence activity against DIGSA in %) of 90% and a pest or weed control at 320 g/ha (Poa annua (POAAN); Poa annua, post-emergence, 504 h, application rate 320 g/ha, read-out: post-emergence activity against POAAN in %) of 90%.
`Cc1cc2c(nc1-c1ccccc1F)N(S(=O)(=O)Cc1ccc(F)cc1)CS2` [Example I-122] was tested, and the “pre-emergence activity against ECHCG in %” value ([1]; application rate 320 g/ha) was 100%, the “pre-emergence activity against VERPE in %” value (Veronica persica (VERPE); application rate 320 g/ha) was 80% and the “post-emergence activity against ABUTH in %” value [2] was 90%. For the same molecule, the “pre-emergence activity against MATIN in %” value [4] was 80%, the “pre-emergence activity against MATIN in %” value [5] was 90% and the “pre-emergence activity against ZEAMX in % (crop plant damage)” value (Zea mays (ZEAMX); application rate 320 g/ha) was 0%. For the same molecule, the “pre-emergence activity against DIGSA in %” value [6] was 100%, the “pre-emergence activity against DIGSA in %” value ([7]; application rate 320 g/ha) was 100% and the “pre-emergence activity against POLCO in %” value ([8]; application rate 80 g/ha) was 80%. The “pre-emergence activity against GLXMA in % (crop plant damage)” value (Glycine max (GLXMA)) was 10%, the “post-emergence activity against SETVI in %” value (Setaria viridis (SETVI); application rate 1280 g/ha) was 90% and the “post-emergence activity against DIGSA in %” value ([9]; application rate 1280 g/ha) was 90%. For the same molecule, the “post-emergence activity against POAAN in %” value (Poa annua (POAAN); application rate 320 g/ha) was 90%.

— patent publication US20240381872A1, “SUBSTITUTED 2,3-DIHYDRO[1,3]THIAZOLO[4,5-B]PYRIDINES, SALTS THEREOF AND THEIR USE AS HERBICIDALLY ACTIVE SUBSTANCES” (BAYER AKTIENGESELLSCHAFT, priority 2021, published 2024)
